We go through 39 compounds from patent publication US5888999A, “Method for treating anxiety with muscarinic cholinergic receptor agonists” (Eli Lilly and Company, priority 1997, dated 1999).

The first test addresses muscarinic acetylcholine receptors. In words: inhibition of specific binding of ^3 H-Oxotremorine-M (^3 H-Oxo) to rat cortex. Further details: species or system rat (male Wistar). Particulars: ^3 H-Oxotremorine 1.0 nM, 30 min, 25° C. The text has this:
The pharmacological properties of the compounds of the invention can be illustrated by determining their capability to inhibit the specific binding of ^3 H-Oxotremorine-M (^3 H-Oxo). Birdsdall N. J. M., Hulme E. C., and Burgen A. S. V. (1980). "The Character of Muscarinic Receptors in Different Regions of the Rat Brain". Proc. Roy. Soc. London (Series B) 207,1.
^3 H-Oxo labels muscarinic receptor in the CNS (with a preference for agonist domains of the receptors). Three different sites are labeled by ^3 H-Oxo. […] Using the present experimental conditions only the high and medium affinity sites are determined.
The inhibitory effects of compounds on ^3 H-oxo binding reflects the affinity for muscarinic acetylcholine receptors.
All preparations are performed at 0°-4° C. unless otherwise indicated. Fresh cortex (0.1-1 g) from male Wistar rats (150-250 g) is homogenized for 5-10 s in 10 mL […] Hepes pH: 7.4, with an Ultra-Turrax homogenizer. The homogenizer is rinsed with 10 mL of buffer and the combined suspension centrifuged for 15 min. at 40,000×g. The pellet is washed three times with buffer. In each step the pellet is homogenized as before in 2×10 mL of buffer and centrifuged for 10 min. at 40,000×g.
The final pellet is homogenized in 20 mM Hepes pH: 7.4 (100 mL per g of original tissue) and used for binding assay. Aliquots of 0.5 mL is added 25 μL of test solution and 25 μL of ^3 H-Oxotremorine (1.0 nM, final concentration) mixed and incubated for 30 min. at 25° C. Non-specific binding is determined in triplicate using arecoline (1 μg/mL, final concentration) as the test substance. After incubation samples are added 5 mL of ice-cold buffer and poured directly onto Whatman GF/C glass fiber filters under suction and immediately washed 2 times with 5 mL of ice-cold buffer. The amount of radioactivity on the filters are determined by conventional liquid scintillation counting. Specific binding is total binding minus non specific binding.
Test substances are dissolved in 10 mL water (if necessary heated on a steam-bath for less than 5 min.) at a concentration of 2.2 mg/mL. 25-75% inhibition of specific binding must be obtained before calculation of IC50. The test value will be given as IC50 (the concentration (nM) of the test substance which inhibits the specific binding of ^3 H-oxo by 50%).
IC50 =(applied test substance concentration)×(Cx /Co
where Co is specific binding in control assays and Cx is the specific binding in the test assay. (The calculations assume normal mass-action kinetics).
Usually IC50 stands for the concentration that inhibits the measured activity by half. A higher IC50 goes with lower potency. Consider `FC(F)(F)Oc1ccc(CSc2nccnc2O[C@H]2CN3CCC[C@@H]2C3)cc1` (relative stereo) [Compound 38, (±)-endo-2-(4-Trifluoromethoxybenzylthio)-3-(1-azabicyclo[3.2.1]octyl-6-oxy)pyrazine], for which the IC50 is 6.2 nM.
The same measure, in the same setting: the result for `c1cnc(O[C@H]2CN3CCC[C@@H]2C3)cn1` [Compound 21, 2-[endo-(+,-)-6-(1-azabicyclo[3.2.1]octyloxy)]-pyrazine] reads 26 nM; that for `CCCSc1nccnc1O[C@H]1CN2CCC[C@@H]1C2` (relative stereo) [Compound 29, (±)-endo-2-Propylthio-3-(1-azabicyclo[3.2.1]octyl-6-oxy)pyrazine], 1.7 nM.
Consider `C=CCSc1nccnc1O[C@H]1CN2CCC[C@@H]1C2` (relative stereo) [Compound 36, (±)-endo-2-(2-propenylthio)-3-(1-azabicyclo[3.2.1]octyl-6-oxy)pyrazine], for which the IC50 was 0.34 nM.
Take `CCCSc1cncc(O[C@H]2CN3CCC[C@@H]2C3)n1` (relative stereo) [Compound 39, (±)-endo-2-Propylthio-6-(1-azabicyclo[3.2.1]octyl-6-oxy)pyrazine]: the IC50 is 10 nM.
`CCCCSc1nccnc1O[C@H]1CN2CCC[C@@H]1C2` (relative stereo) [Compound 24, 3-(1-butylthio)-2-[endo-(+,-)-6-(1-azabicyclo[3.2.1]octyloxy)]-pyrazine] had a concentration for half-maximal inhibition (IC50) of 2.2 nM.
Turning to `CCCCSc1nccnc1OCCN(C)C` [Compound 17], the IC50 amounted to 17 nM.
As for `CN(C)CCOc1cnccn1` [Compound 26, 2-(2-Dimethylaminoethoxy)pyrazine], the concentration for half-maximal inhibition (IC50) is more than 1000 nM.
`C(=Cc1ccccc1)CSc1nccnc1O[C@H]1CN2CCC[C@@H]1C2` (relative stereo) [Compound 42, (±)-endo-2-(3-Phenyl-2-propenylthio)-3-(1-azabicyclo[3.2.1]octyl-6-oxy)pyrazine]: the IC50 was 9.1 nM.
For the compound `Clc1nccnc1O[C@H]1CN2CCC[C@@H]1C2` (relative stereo) [Compound 19, 3-Chloro-2-[endo-(+,-)-6-(1-azabicyclo[3.2.1]octyloxy)]-pyrazine], the IC50 is 121 nM.
Compound `CCSc1nccnc1OC1CN2CCC1CC2` (racemic) [Compound 14, (+/-)-3-Ethylthio-2-(1-azabicyclo[2.2.2]octyl-3-oxy)pyrazine] gave an IC50 of 26 nM.
Still for that read-out and setting: the result for `CN1CCC[C@H]1COc1cnccn1` [Compound 28, (S)-2-(1-Methyl-2-pyrrolidinylmethoxy)pyrazine] reads more than 10000 nM; that for `CCCCSc1nccnc1OCC[N+](C)(C)C` [Compound 18, 3-(1-Butylthio)-2-(2-(trimethylamino)ethoxy)pyrazine iodide], 21 nM; that for `CC(C)CSc1nccnc1O[C@H]1CN2CCC[C@@H]1C2` (relative stereo) [Compound 31, (±)-endo-2-(2-Methylpropylthio)-3-(1-azabicyclo[3.2.1]octyl-6-oxy)-pyrazine], 3.4 nM.
On the same count and under the same terms, the result for `CCCCCCCSc1nccnc1OC1CN2CCC1CC2` (racemic) [Compound 16] reads 39 nM; that for `C/C=C/CSc1nccnc1O[C@H]1CN2CCC[C@@H]1C2` (relative stereo) [Compound 34, (±)-endo-2-(trans-2-Butenylthio)-3-(1-azabicyclo[3.2.1]octyl-6-oxy)pyrazine], 2 nM; that for `CN1[C@@H]2CC[C@H]1C[C@@H](Oc1cnccn1)C2` [Compound 25, endo-(8-methyl-8-azabicyclo[3.2.1]octyl-3-oxy)pyrazine], 180 nM.
`CCCCCSc1nccnc1O[C@H]1CN2CCC[C@@H]1C2` (relative stereo) [Compound 30, (±)-endo-2-Pentylthio-3-(1-azabicyclo[3.2.1]octyl-6-oxy)pyrazine] gave a half-maximal inhibitory concentration (IC50) of 4.4 nM.
`CCCCCOc1nccnc1OC1CN2CCC1CC2` (racemic) [Compound 9, (+/-)-3-(1-Pentyloxy)-2-(1-azabicyclo[2.2.2]octyl-3-oxy)pyrazine]: the IC50 is 36 nM.
`c1cnc(OC2CN3CCC2CC3)cn1` (racemic) [Compound 8, (+/-)-2-(1-Azabicyclo[2.2.2]octyl-3-oxy)pyrazine] yielded an IC50 of 1040 nM.
As for `CC(C)=CCCSc1nccnc1O[C@H]1CN2CCC[C@@H]1C2` (relative stereo) [Compound 43, (±)-endo-2-(4-Methyl-3-pentenylthio)-3-(1-azabicyclo[3.2.1]octyl-6-oxy)pyrazine], the IC50 amounted to 8.1 nM.
For `FC(F)(F)CCCSc1nccnc1O[C@H]1CN2CCC[C@@H]1C2` (relative stereo) [Compound 35, (±)-endo-2-(4,4,4-Trifluorobutylthio)-3-(1-azabicyclo[3.2.1]octyl-6-oxy)pyrazine], the IC50 stood at 3.2 nM.
As for `CCCCOc1nccnc1O[C@H]1CN2CCC[C@@H]1C2` (relative stereo) [Compound 23, 3-(1-butyloxy)-2-[endo-(+,-)-6-(1-azabicyclo[3.2.1]octyloxy)]-pyrazine], the IC50 came out at 4.9 nM.
Compound `COCCSc1nccnc1O[C@H]1CN2CCC[C@@H]1C2` (relative stereo) [Compound 41, (±)-endo-2-(2-methoxyethylthio)-3-(1-azabicyclo[3.2.1octyl-6-oxy)pyrazine] gave an IC50 of 3.2 nM.
`CCOc1nccnc1OC1CN2CCC1CC2` (racemic) [Compound 11] had an IC50 of 56 nM.
In turn, `FC(F)(F)CSc1nccnc1O[C@H]1CN2CCC[C@@H]1C2` (relative stereo) [Compound 33, (±)-endo-2-(2,2,2,-Trifluoroethylthio)-3-(1-azabicyclo[3.2.1]octyl-6-oxy)pyrazine] yielded an IC50 of 1.5 nM.
Turning to `CSc1nccnc1OC1CN2CCC1CC2` (racemic) [Compound 13, (+/-)-3-Methylthio-2-(1-azabicyclo[2.2.2]octyl-3-oxy)pyrazine], the IC50 was determined as 74 nM.
Turning to `FC(F)(F)CSc1cncc(O[C@H]2CN3CCC[C@@H]2C3)n1` (relative stereo) [Compound 40, (±)-endo-2-(2.2.2-Trifluoroethylthio)-6-(1-azabicyclo[3.2.1]octyl-6-oxy)pyrazine], the 50% inhibitory concentration (IC50) was determined as 60 nM.
As for `CCCSc1nccnc1OC1CN2CCC1CC2` (racemic) [Compound 15], the IC50 was determined as 14 nM.
In turn, `CCCCCCSc1nccnc1OC1CN2CCC1CC2` (racemic) [Compound 12, (+/-)-3-(1-Hexylthio)-2-(1-azabicyclo[2.2.2]octyl-3-oxy)pyrazine] gave an IC50 of 25 nM.
As to `CC(C)CCSc1nccnc1O[C@H]1CN2CCC[C@@H]1C2` (relative stereo) [Compound 37, (±)-endo-2-(3-Methylbutylthio)-3-(1-azabicyclo[3.2.1]octyl-6-oxy)pyrazin], the 50% inhibitory concentration (IC50) is 1.3 nM.
With `CCCCCSc1nccnc1OC1CN2CCC1CC2` (racemic) [Compound 7, (+/-)-3-Pentylthio-2-(1-azabicyclo[2.2.2]octyl-3-oxy)pyrazine], the IC50 was found to be 16 nM.
`COc1nccnc1OC1CN2CCC1CC2` (racemic) [Compound 10, (+/-)-3-Methoxy-2-(1-azabicyclo[2.2.2]octyl-3-oxy)pyrazine] returned an IC50 of 354 nM.
`Clc1cncc(O[C@H]2CN3CCC[C@@H]2C3)n1` (relative stereo) [Compound 22, 6-Chloro-2-[endo-(+,-)-6-(1-azabicyclo[3.2.1]octyloxy)]-pyrazine] had an IC50 of 140 nM.
Turning to `Cc1nccnc1O[C@H]1CN2CCC[C@@H]1C2` (relative stereo) [Compound 20, 3-Methyl-2-[endo-(+,-)-6-(1-azabicyclo[3.2.1]octyloxy)]-pyrazine], the 50% inhibitory concentration (IC50) was 245 nM.
`C[N+](C)(C)CCOc1cnccn1` [Compound 27, 2-(2-Trimethylaminoethoxy)pyrazine iodide] registered an IC50 of more than 1000 nM.
With `CCSc1nccnc1O[C@H]1CN2CCC[C@@H]1C2` (relative stereo) [Compound 32, (±)-endo-2-Ethylthio-3-(1-azabicyclo[3.2.1]octyl-6-oxy)pyrazine], the IC50 turned out to be 3.9 nM.

The next test concerns 5-HT1A receptor.
Test: not given
Particulars: only at the 5-HT1A and dopamine receptors; cited from earlier work.
As for `O=C1CC2(CCCC2)CC(=O)N1CCCCN1CCN(c2ncccn2)CC1` [Buspirone], the “interaction at 5-HT1A receptors” value was “reasonable potency”.

The next test concerns dopamine receptors.
Test: not given
Particulars: only at the 5-HT1A and dopamine receptors; cited from earlier work.
As for `O=C1CC2(CCCC2)CC(=O)N1CCCCN1CCN(c2ncccn2)CC1` [Buspirone], the “interaction at dopamine receptors” value is on record as “reasonable potency”.

The next test deals with M1-sites (muscarinic receptors).
Test: not given
Particulars: cited from earlier work.
With `CN1CCN(CC(=O)N2c3ccccc3C(=O)Nc3cccnc32)CC1` [pirenzepine], the “selectivity for M1-sites” value was “selective for M1 -sites”.
